# Measurements from patent US20240058335A1, “METHODS FOR TREATMENT OF CANCER USING ABL INHIBITORS AND DRUGS TARGETING THE MEVALONATE PATHWAY” (Duke University, priority 2021, published 2024).
# Where two headings read alike, the source gives them in different places.
# Columns and labels:
# [1] = system: lung cancer cells (PC9, PC9 GR4, H460, H358); test: Seahorse XF Analyzer Mito Stress Test (OCR: basal respiration, maximal respiration, ATP production); format: cell-based, human; settings: for mitochondrial function (basal respiration, maximal respiration, ATP production; OCR): IC50 doses, 24 hours, PC9, PC9 GR4, H460, H358; for mitochondrial respiration in cells treated with ABL001 and simvastatin (MVA rescue and its reversal): PC9 GR4, added to ABL001 + simvastatin (inhibitors with MVA)
# Excerpt: (FIGS. 2A-2D) Seahorse XF Analyzer Mito Stress Test analysis of mitochondrial basal respiration, maximal respiration, and ATP production as measured by changes in oxygen consumption rate (OCR). […] (FIG. 2E) Mitochondrial basal respiration, maximal respiration, and ATP production as measured by Seahorse XF Analyzer's Mito Stress Test for PC9 cells harboring shRNAs against ABL1/ABL2 (shAA) and non-targeting control (shSCR). (FIGS. 2F-2G) Mitochondrial ROS (MitoROS) release as measured by FACS analysis of median fluorescent intensity (MFI) using Mitosox probe. […] Data are mean±SEM. […] Seahorse XF Analyzer Mito Stress Test analysis of mitochondrial basal respiration, maximal respiration, and ATP production as measured by changes in oxygen consumption rate (OCR) in the indicated lung cancer cells: (FIG. 8A) PC9; (FIG. 8B) PC9 GR4; (FIG. 8C) H460. […] Doses correspond to IC50 dose for each drug in the corresponding cell line. In each graph, for each of Basal Respiration, Maximal Respiration, and ATP production, data is shown from left to right for DMSO, GNF5, and Nilotinib. […] Cells were treated with IC50 doses for 24 hours (n=3). Data are mean±SEM. […] SEAHORSE MEASUREMENTS. Basal and maximal oxygen consumption rate and ATP production were measured using a Mito Stress test Kit and XF96 Extracellular Flux Analyzer (Seahorse Bioscience), according to manufacturer's instructions. Cells were plated in XF96 plates at 10,000 cells per well on Day 0. […] The plate was incubated in a non-CO2 incubator at 37° C. for 1 hr to equilibrate.
# [2] = system: lung cancer cells (PC9, PC9 GR4, PC9 BrM3, H460, H358); test: 72 hr growth inhibition / cell viability assay with drug combinations and metabolite rescue; format: cell-based, human; settings: for cell survival in the presence of statins: PC9-BrM3, sub-therapeutic doses, 72 hrs; for rescue of cell survival in cells co-treated with ABL001 and simvastatin: metabolite supplement, 72 hours, PC9 GR4, PC9, H460; for cell survival on co-treatment with ABL001: PC9 GR4, PC9 and H460 cells
# PC9 GR4 cells [3] = test: Cell viability dose-response assay (CellTiter-Glo), IC50 calculation; format: cell-based, human
# H460 cells = test: as above; format: cell-based, human
# H358 cells = test: as above; format: cell-based, human
# PC9 BrM3 cells = test: as above; format: cell-based, human; settings: read-out: Calculated IC50
# PC9 cells [4] = test: cells; settings: Homo sapiens, PC-9, read-out: Calculated IC50
# [5] = system: lung cancer cells (PC9, PC9 GR4, PC9 BrM3, H460); test: Immunoblotting of apoptosis, prenylation and cytochrome c markers; format: cell-based, human; settings: 24 hr
# PC9 GR4 cells [6] = test: Real-time quantitative PCR of BCL-2 family mRNAs; format: cell-based, human; settings: PC9 GR4, metabolite supplement, 24 hours
# Description: (FIG. 5E) Immunoblots of cytochrome c, cleaved PARP, β-catenin, GAPDH, and β-Tubulin. […] Cytoplasmic, membrane, and whole cell fractions are shown for drug treatments. […] Data are mean±SEM. REAL-TIME QUANTITATIVE PCR. RNA was isolated from subconfluent monolayers of cancer cells using the RNeasy RNA isolation kit (QIAGEN), and cDNA synthesis was performed using oligo(dT) primers and M-MLV reverse transcriptase (Invitrogen). RT-qPCR was performed in triplicate wells using iTaq Universal SYBR Green Supermix (Bio-Rad). Primers used in this study were purchased from Sigma Aldrich. Analysis of real-time data was collected using a Bio-Rad CFX384 machine and CFX Maestro software. Expression levels of each gene were normalized to GAPDH control housekeeping genes using the ddCT algorithm.
# PC9 cells [7] = settings: read-out: Calculated IC50, dose-response assay
# [8] = system: PC9, PC9 GR4 and H460 cells; test: MitoSOX staining, mitochondrial ROS by FACS; format: cell-based, human; settings: EGFR mutant PC9 and PC9 GR4 cells, IC50 doses, 24 hours
# PC9 and H460 cells = test: MitoTracker staining, mitochondria number and morphology; format: cell-based, human; settings: IC50 dose, 24 hours
# Description: (FIG. 9A) Mitochondrial basal respiration, maximal respiration, and ATP production as measured by changes in oxygen consumption rate (OCR) from Seahorse XF Analyzer Mito Stress Test analysis for H460 cells harboring shRNAs against ABL1/ABL2 (shAA) and non-targeting control (shSCR). (FIG. 9B) FACS analysis of mitochondrial ROS (MitoROS) using mitosox probe in H460 cells treated with 15 NM GNF5, 15 NM ABL001, and 0.5 nM Docetaxel for 24 hours. n=3 (FIGS. 9C-9D) MitoROS in H460 AA knockdown cells (FIG. 9C) or PC9 AA knockdown cells (FIG. 9D). (FIGS. 9E-9F) M[…] to analyze mitochondria number in H460 cells with 15 NM GNF5 (FIG. 9E) or PC9 cells treated with 10 NM GNF5 (FIG. 9F). n=3 (FIGS. 9G-9H) M[…] of H460 AA knockdown cells (FIG. 9G) or PC9 AA knockdown cells (FIG. 9H). n=3 Statistical analysis was calculated using unpaired two-tailed t test *p<0.05, Data are mean±SEM. (FIG. 9I) H460 cells stained with Mitotracker and Hoescht 33342 following treatment with IC50 dose for each drug for 24 hours. Image quantification showing mitochondrial length×width plotted for thousands of mitochondria from >10 cells across at least two independent experiments. Changes were not statistically significant.
# M[…] . MitoTracker Red CMXRos was purchased from Thermofisher (cat. M7512). […] The samples were analyzed using flow cytometer BD FACS Canto II. […]
# [9] = cited from earlier work
# [10] = Homo sapiens, PC9 GR4, dose-response assay, read-out: Calculated IC50
# [11] = Homo sapiens, NCI-H460, H460, dose-response assay, read-out: Calculated IC50
# [12] = Homo sapiens, NCI-H358, H358, dose-response assay, read-out: Calculated IC50
# [13] = Homo sapiens, PC9 BrM3, dose-response assay
# [14] = PC9 GR4, dose-response assay, read-out: Calculated IC50
# [15] = H460, dose-response assay, read-out: Calculated IC50
Compound,"mitochondrial function (basal respiration, maximal respiration, ATP production; OCR) [1]",cell survival in the presence of statins [2],IC50 (PC9 GR4 cells [3]; [10]),IC50 (H460 cells; [11]),IC50 (PC9 cells [4]),mitochondrial respiration in cells treated with ABL001 and simvastatin (MVA rescue and its reversal) [1],IC50 (PC9 GR4 cells [3]; [14]),IC50 (H460 cells; [15]),IC50 (PC9 cells [7]),also measured
"COc1cc2ncnc(Nc3ccc(F)c(Cl)c3)c2cc1OCCCN1CCOCC1 [Gefitinib, gefitinib]",not impaired,did not affect cell survival,,,,,,,,
"CCC(C)(C)C(=O)O[C@H]1C[C@@H](C)C=C2C=C[C@H](C)[C@H](CC[C@@H]3C[C@@H](O)CC(=O)O3)[C@H]21 [Simvastatin, simvastatin]",,,4 µM,12 µM,4 µM,,,,,IC50 (H358 cells; [12]): 12 µM; IC50 (PC9 BrM3 cells; [13]): 4 µM
"C[C@@](O)(CCO)CC(=O)O [MVA, mevalonate]",,,,,,restored mitochondrial respiration back to baseline,,,,"rescue of cell survival in cells co-treated with ABL001 and simvastatin [2]: could rescue cell survival; reversal of cytochrome c release ([5]; PC9 GR4, 500 μM MVA added to ABL001 and simvastatin): reversed; prevention of PARP and caspase-3 cleavage in cells co-treated with ABL001 and simvastatin ([5]; metabolite supplement): prevented cleavage of PARP and caspase-3; restoration of BCL-2 family gene expression in combination-treated cells (PC9 GR4 cells [6]): restored gene expression back to baseline"
"CC(C)=CCC/C(C)=C/CC/C(C)=C/CC/C(C)=C/COP(=O)(O)OP(=O)(O)O [GGPP, geranylgeranyl diphosphate]",,,,,,,,,,rescue of cell survival in cells co-treated with ABL001 and simvastatin [2]: preferentially rescued cell viability
CC(C)n1c(/C=C/C(O)CC(O)CC(=O)O)c(-c2ccc(F)cc2)c2ccccc21 (stereo not shown) [Fluvastatin],,,,,,,2 µM,4 µM,2 µM,"IC50 (H358 cells; H358, dose-response assay, read-out: Calculated IC50): 4 µM; IC50 (PC9 BrM3 cells; PC9 BrM3, dose-response assay): 2 µM"
COC(=O)[C@H](CCSC)NC(=O)c1ccc(NC[C@@H](N)CS)cc1-c1ccccc1 [FTI-277],,,,,,minimal effect,50 µM,15 µM,50 µM,cell survival on co-treatment with ABL001 ([2]; 72 hr): only slightly decreased
Cc1cn(-c2cc(NC(=O)c3ccc(C)c(Nc4nccc(-c5cccnc5)n4)c3)cc(C(F)(F)F)c2)cn1 [Nilotinib],inability of Nilotinib to inhibit mitochondria function,,2 µM,2 µM,2 µM,,,,,"cell viability on co-treatment with simvastatin or fluvastatin ([2]; PC9 GR4 and H460, sublethal doses, 72 hr): did not promote additive or synergistic decreases in cell viability"
"O=C(Nc1ccc(OC(F)(F)Cl)cc1)c1cnc(N2CC[C@@H](O)C2)c(-c2ccn[nH]2)c1 [ABL001, Asciminib]",greatly decreased,decreased cell survival,,,7.5 µM,,,,,"IC50 (PC9 GR4 cells [3]; Homo sapiens, PC9/GR4, read-out: Calculated IC50): 7.5 µM; IC50 (H460 cells; Homo sapiens, NCI-H460, read-out: Calculated IC50): 15 µM; IC50 (H358 cells; Homo sapiens, NCI-H358, read-out: Calculated IC50): 15 µM; IC50 (PC9 BrM3 cells; Homo sapiens): 7.5 µM; mitochondrial reactive oxygen species (MitoROS) levels [8]: increased; mitochondrial morphology (length and width, network) (PC9 and H460 cells): marginal, nonsignificant increase; tolerability ([9]; mouse, in vivo, po): well tolerated; body weight ([9]; oral gavage, mice): does not induce weight loss; crossing of the BBB ([9]; preclinical mouse models): shown to cross the BBB"
"CC(=O)O[C@@]12CO[C@@H]1C[C@H](O)[C@@]1(C)C(=O)[C@H](O)C3=C(C)[C@@H](OC(=O)[C@H](O)[C@@H](NC(=O)OC(C)(C)C)c4ccccc4)C[C@@](O)([C@@H](OC(=O)c4ccccc4)[C@H]21)C3(C)C [Docetaxel, docetaxel]",did not significantly impair,did not affect cell survival,0.001 µM,0.0005 µM,0.001 µM,,,,,IC50 (H358 cells; [12]): 0.001 µM; IC50 (PC9 BrM3 cells; [13]): 0.001 µM
COC(=O)[C@H](CC(C)C)NC(=O)c1ccc(NC[C@@H](N)CS)cc1-c1cccc2ccccc12 [GGTI-298],,,,,,negated the MVA rescue,20 µM,15 µM,20 µM,cell survival on co-treatment with ABL001 ([2]; 72 hr): significantly impaired
